≈ marks a conversion by molar mass, not a printed value.
What was measured:
Type in all cases: cell-based
[1] = tested on: Aspergillus niger ATCC 16404; experiment: Antifungal MIC by broth dilution (CLSI M38-A), RPMI 1640 with MOPS; conditions: broth macro-dilution, end point after 48 hours, MIC = 80% inhibition vs growth control (Amphotericin B: complete inhibition); for MIC: Aspergillus niger, ATCC16404
Protocol: (§1) The compounds of Formula 1 were tested for antifungal activity against Candida albicans, Aspergillus niger and Fusarium proliferatum. In vitro evaluation of antifungal activity was performed by determining the minimum inhibitory concentration (MIC) following standard methods (CLSI: Reference method for broth dilution antifungal susceptibility testing of yeasts; Approved standard, second edition M27-A2, 2002; CLSI: Reference method for broth dilution antifungal susceptibility testing of filamentous fungi; Approved standard M38-A, 2002). Anti-fungal susceptibility testing of these compounds of Formula 1 was done by broth dilution method using RPMI 1640 medium with MOPS buffer. Known anti-fungal agents like Fluconazole and Amphotericin-B were used as standards. End points were determined after 48 hours visually and by using spectrophotometer wherever necessary.

[2] = tested on: Fusarium proliferatum ATCC 10052; experiment: as above; conditions: broth macro-dilution, end point after 48 hours, MIC = 80% inhibition vs growth control (Amphotericin B: complete inhibition); for MIC: Fusarium proliferatum, ATCC10052, read-out: MIC F. proliferatum ATCC 10052
Protocol: as §1

[3] = tested on: Candida albicans ATCC 24433; experiment: Antifungal MIC by broth dilution (CLSI M27-A2), RPMI 1640 with MOPS; conditions: broth macro-dilution, end point after 48 hours, MIC = 80% inhibition vs growth control (Amphotericin B: complete inhibition); for MIC: Candida albicans, ATCC24433, read-out: MIC C. albicans ATCC 24433
Protocol: as §1

Row | MIC [1] | MIC [2] | MIC [3] | MIC A. niger ATCC 16404 [1] | MIC F. proliferatum ATCC 10052 [2] | MIC C. albicans ATCC 24433 [3] | SMILES
1 | > 16 µg/mL | > 16 µg/mL | 0.5 µg/mL (≈ 1.25 µM) | – | – | – | N#Cc1c(NCC(O)(Cn2cncn2)c2ccc(F)cc2F)sc2c1CCC2 (stereo not drawn) [Compound 1o, 2-[2-(2,4-Difluorophenyl)-2-hydroxy-3-[1,2,4]triazol-1-yl-propylamino]-5,6-dihydro-4H-cyclopenta[b]thiophene-3-carbonitrile]
2 | > 4 µg/mL | > 4 µg/mL | > 4 µg/mL | – | – | – | CCOC(=O)c1cc(CCCOCc2ccccc2)sc1NCC(O)(Cn1cncn1)c1ccc(F)cc1F (stereo not drawn) [Compound 1f, Ethyl 5-(3-benzyloxypropyl)-2-[2-(2,4-difluorophenyl)-2-hydroxy-3-[1,2,4]triazol-1-yl-propylamino]-thiophene-3-carboxylate]
3 | > 2 µg/mL | > 2 µg/mL | > 2 µg/mL | – | – | – | CCCCCCc1sc(NCC(O)(Cn2cncn2)c2ccc(F)cc2F)c(C(=O)OCC)c1C (stereo not drawn) [Compound 1j, Ethyl 2-[2-(2,4-difluorophenyl)-2-hydroxy-3-[1,2,4]triazol-1-yl-propylamino]-5-hexyl-4-methyl-thiophene-3-carboxylate]
4 | 128 µg/mL (≈ 418 µM) | > 128 µg/mL | 1 µg/mL (≈ 3.27 µM) | – | – | – | OC(Cn1cncn1)(Cn1cncn1)c1ccc(F)cc1F [Fluconazole]
5 | > 8 µg/mL | > 8 µg/mL | > 8 µg/mL | – | – | – | CCCCCCCc1cc(C(=O)OCC)c(NCC(O)(Cn2cncn2)c2ccc(F)cc2F)s1 (stereo not drawn) [Compound 1d, Ethyl 2-[2-(2,4-difluorophenyl)-2-hydroxy-3[1,2,4]triazol-1-yl-propylamino]-5-heptyl-thiophene-3-carboxylate]
6 | – | – | – | 1 µg/mL (≈ 1.08 µM) | 2 µg/mL (≈ 2.16 µM) | 0.25 µg/mL (≈ 0.271 µM) | C[C@@H]1[C@H](O)[C@@H](C)/C=C/C=C/C=C/C=C/C=C/C=C/C=C/[C@H](O[C@@H]2O[C@H](C)[C@@H](O)[C@H](N)[C@@H]2O)C[C@@H]2O[C@](O)(C[C@@H](O)C[C@@H](O)[C@H](O)CC[C@@H](O)C[C@@H](O)CC(=O)O[C@H]1C)C[C@H](O)[C@H]2C(=O)O [Amphotericin B, reference compound]
7 | > 4 µg/mL | > 4 µg/mL | 4 µg/mL (≈ 8.65 µM) | – | – | – | CCOC(=O)c1c(NCC(O)(Cn2cncn2)c2ccc(F)cc2F)sc2c1CCCC2 (stereo not drawn) [Compound 1h, Ethyl 2-[2-(2,4-difluorophenyl)-2-hydroxy-3-[1,2,4]triazol-1-yl-propylamino]-4,5,6,7-tetrahydro-benzo[b]thiophene-3-carboxylate]
8 | > 16 µg/mL | > 16 µg/mL | 2 µg/mL (≈ 4.73 µM) | – | – | – | CCOC(=O)c1cc(C)sc1NCC(O)(Cn1cncn1)c1ccc(F)cc1F (stereo not drawn) [Compound 1a, Ethyl 2-[2-(2,4-difluorophenyl)-2-hydroxy-3-[1,2,4]triazol-1-yl-propylamino]-5-methyl-thiophene-3-carboxylate]
9 | > 4 µg/mL | > 4 µg/mL | > 4 µg/mL | – | – | – | CCCCCCCCCCc1cc(C(=O)OCC)c(NCC(O)(Cn2cncn2)c2ccc(F)cc2F)s1 (stereo not drawn) [Compound 1e, Ethyl 5-n-decyl-2-[2-(2,4-difluorophenyl)-2-hydroxy-3-[1,2,4]triazol-1-yl-propylamino]-thiophene-3-carboxylate]
10 | > 16 µg/mL | > 16 µg/mL | 0.25 µg/mL (≈ 0.642 µM) | – | – | – | CCc1cc(C#N)c(NCC(O)(Cn2cncn2)c2ccc(F)cc2F)s1 (stereo not drawn) [Compound 1l, 2-[2-(2,4-Difluorophenyl)-2-hydroxy-3-[1,2,4]triazol-1-yl-propylamino]-5-ethyl-thiophene-3-carbonitrile]
11 | > 8 µg/mL | > 8 µg/mL | 8 µg/mL (≈ 16.8 µM) | – | – | – | CCOC(=O)c1c(NCC(O)(Cn2cncn2)c2ccc(F)cc2F)sc2c1CCCCC2 (stereo not drawn) [Compound 1i, Ethyl 2-[2-(2,4-difluorophenyl)-2-hydroxy-3-[1,2,4]triazol-1-yl-propylamino]-5,6,7,8-tetrahydro-4H-cyclohepta[b]thiophene-3-carboxylate]
12 | > 8 µg/mL | > 8 µg/mL | 2 µg/mL (≈ 4.46 µM) | – | – | – | CCOC(=O)c1c(NCC(O)(Cn2cncn2)c2ccc(F)cc2F)sc2c1CCC2 (stereo not drawn) [Compound 1g, Ethyl 2-[2-(2,4-difluorophenyl)-2-hydroxy-3-[1,2,4]triazol-1-yl-propylamino]-5,6-dihydro-4H-cyclopenta[b]thiophene-3-carboxylate]
13 | > 16 µg/mL | > 16 µg/mL | 2 µg/mL (≈ 4.44 µM) | – | – | – | CCCc1cc(C(=O)OCC)c(NCC(O)(Cn2cncn2)c2ccc(F)cc2F)s1 (stereo not drawn) [Compound 1c, Ethyl 2-[2-(2,4-difluorophenyl)-2-hydroxy-3-[1,2,4]triazol-1-yl-propylamino]-5-propyl-thiophene-3-carboxylate]
14 | > 4 µg/mL | > 4 µg/mL | 2 µg/mL (≈ 4.58 µM) | – | – | – | CCOC(=O)c1cc(CC)sc1NCC(O)(Cn1cncn1)c1ccc(F)cc1F (stereo not drawn) [Compound 1b, Ethyl 2-[2-(2,4-difluorophenyl)-2-hydroxy-3-[1,2,4]triazol-1-yl-propylamino]-5-ethyl-thiophene-3-carboxylate]
15 | > 32 µg/mL | > 32 µg/mL | 0.5 µg/mL (≈ 1.33 µM) | – | – | – | Cc1cc(C#N)c(NCC(O)(Cn2cncn2)c2ccc(F)cc2F)s1 (stereo not drawn) [Compound 1k, 2-[2-(2,4-Difluorophenyl)-2-hydroxy-3-[1,2,4]triazol-1-yl-propylamino]-5-methyl-thiophene-3-carbonitrile]
16 | > 32 µg/mL | > 32 µg/mL | 0.12 µg/mL (≈ 0.297 µM) | – | – | – | CCCc1cc(C#N)c(NCC(O)(Cn2cncn2)c2ccc(F)cc2F)s1 (stereo not drawn) [Compound 1m, 2-[2-(2,4-Difluorophenyl)-2-hydroxy-3-[1,2,4]triazol-1-yl-propylamino]-5-propyl-thiophene-3-carbonitrile]
17 | > 4 µg/mL | > 4 µg/mL | 0.25 µg/mL (≈ 0.579 µM) | – | – | – | CCCCCc1cc(C#N)c(NCC(O)(Cn2cncn2)c2ccc(F)cc2F)s1 (stereo not drawn) [Compound 1n, 2-[2-(2,4-Difluorophenyl)-2-hydroxy-3-[1,2,4]triazol-1-yl-propylamino]-5-pentyl-thiophene-3-carbonitrile]
